The values below come from US10780174B2, “Lipid-linked prodrugs” (The University of British Columbia, priority 2015, dated 2020).

Molecules are shown by their SMILES. Entries after “also recorded” stand apart in the source; their conditions may differ. Read-outs that look alike come from different tables or passages of the source.

Data set [1] is described as follows: Particle size and polydispersity of LNP containing prodrug (dynamic light scattering). The class given is physicochemical. The settings on record: PDI in brackets; for Particle size (PDI) PC-Chol LNP: LD-DEX prodrug in PC-Chol LNP; for Particle size (PDI) [ionizable LNP]: LD-DEX prodrug in ionizable LNP. How it is done:
(§1) Preparation of LNP Systems: PC-Chol LNP systems were prepared by rapidly mixing POPC, cholesterol, lipid-linked prodrug and PEG-DMPE (in molar ratio of 49/39/10/2) dissolved in ethanol with phosphate-buffered saline using a T-junction mixer. Formulations were dialyzed against phosphate-buffered saline to remove residual ethanol and to raise the pH to 7.4. PC-TO and ionizable LNP systems were prepared in the same way except that the lipid compositions for these systems are: POPC, triolein, lipid-linked prodrug and PEG-DSPE (in molar ration of 19/70/10/1), and ionizable lipid, DSPC, cholesterol, lipid-linked prodrug and PEG-DMPE (in molar ration of 40/10/38.5/10/1.5), respectively.
Characterization of LNP: Particle size was determined by dynamic light scattering using a Malvern Zetasizer Nano ZS™ (Malvern, UK) following buffer exchange into phosphate-buffered saline. Number-weighted size and distribution data was used. Lipid concentrations were determined by measuring total cholesterol using the Cholesterol E enzymatic assay kit from Wako Chemicals USA™ (Richmond, Va.). The morphology of LNP formulations containing LD-DEX was analyzed by cryogenic-transmission electron microscopy (cryoTEM) as described previously [Leung et al. (2012)].

Data set [2] can be described thus: Prodrug incorporation (entrapment) in lipid nanoparticles, UHPLC. The format is physicochemical. Particulars: for % Entrapment PC-Chol LNP: LD-DEX prodrug in PC-Chol LNP; for % Entrapment [ionizable LNP]: LD-DEX prodrug in ionizable LNP. The method, then: as §1
(§2) Quantitation of prodrugs by HPLC: LD-DEX/DTX were quantified by ultra high-pressure liquid chromatography (UHPLC) using a Waters Acquity™ UPLC system equipped with a photodiode array detector (PDA) and evaporative light scattering (ELS) detector; Empower™ data acquisition software version 3.0 was used (Waters™, USA). Separations were performed using a Waters Acquity™ BEH C18 column (1.7 μm, 2.1×100 mm) at a flow rate of 0.5 ml/min, with mobile phases A and B consisting of methanol/10 mM ammonium bicarbonate (80/20% v/v) and methanol/acetonitrile (80/20% v/v), respectively. The mobile phases were delivered at a programmed linear gradient (45%-80% B in 1 min then to 99% B at 2 min) at a column temperature of 55° C. The analyte was measured by PDA (at a wavelength of 239 nm) and ELS detector against calibration standard curves. For the analysis of LD-DEX/DTX breakdown to active compound, linear gradients of 20/80% to 100/0% (acetonitrile/water, v/v) over 7 min were used.

Data set [3] can be described thus: In vitro degradation of lipid-linked prodrugs in LNP, mouse plasma. The format is in vitro ADME. The settings on record: for prodrug degradation over 24 h in mouse plasma: LNP, 0, 2, 4 and 24 h; for prodrug cleavage/degradation after 1 h in plasma: 37° C., mouse plasma; for release of active drug (UPLC chromatogram) in mouse plasma: 24 h incubation. The method, then:
as §2
To determine the biodegradability of the dexamethasone or docetaxel prodrugs (LD-DEX/DTX), 1 mg/mL LNP was incubated in mouse plasma (Cedarlane™, Burlington, Ontario) or PBS supplemented with 10 U of purified esterase (Sigma-Aldrich™, St. […] Post incubation, four volumes of chloroform/methanol (2:1) was added and the mixture was vortex mixed. Samples were centrifuged at 13,000 g for 5 minutes and the upper phase was discarded. The remaining organic phase was dried down under vacuum and the resulting lipid extract was dissolved in methanol/acetonitrile (1:1). Quantity of parent LD-DEX/DTX compound was determined by ultra high pressure liquid chromatography on a Waters Acquity™ H-Class UPLC System™ equipped with a BEH C18 column and a photodiode array detector.

Data set [4] relates to immunostimulatory effects of LNP-CpG (plasma cytokines). The data set can be described thus: In vivo immune suppression by LD-DEX prodrugs, LNP-CpG model. Further details: species or system C57Bl/6 mice. The settings on record: mice, i.v., 10 mg/kg of CpG, 2 h post injection. The method, then:
(§3) 6-8 Weeks old female C57Bl/6 mice (Charles River Laboratories™, Wilmington, Mass.) were injected intravenously with lipid nanoparticles containing CpG DNA oligonucleotides (10 mg/kg), mRNA (3 mg/kg) or plasmid DNA (pDNA) (1 mg/kg). Animals were euthanized 2 hours post-injection and blood was collected via intracardiac or saphenous sampling. Plasma was separated from whole blood by centrifugation and analyzed for proinflammatory cytokines using the Mesoscale Proinflammatory Multiplex™ kit (Rockville, Md.) according to manufacturer's instruction. All procedures were approved by the Animal Care Committee at the University of British Columbia and were performed in accordance with guidelines established by the Canadian Council on Animal Care.

Data set [5] deals with immunostimulatory effects of LNP-mRNA (plasma cytokines). In words: In vivo immune suppression by LD-DEX prodrugs, LNP-mRNA model. Also on record: species or system C57Bl/6 mice. The settings on record: mice, 3 mg/kg of mRNA, 2 h post injection. The method, then:
as §3

The test system of data set [6] is immunostimulatory effects of LNP-pDNA (plasma cytokines). In words: In vivo immune suppression by LD-DEX prodrugs, LNP-pDNA model. Further details: species or system C57Bl/6 mice. Particulars: mice, i.v., 1 mg/kg of pDNA, 2 h post injection. The method, then: as §3
For data set [7], the system named is IL1β expression in RAW 264.7 mouse macrophage cells. The data set can be described thus: In vitro immune suppression, LPS-treated RAW 264.7 cells, IL1β qRT-PCR. The format is cell-based. Particulars: 2 ng/mL LPS, 4 h. How it is done:
RAW 264.7 mouse macrophage cells were seeded at 250,000 cells per mL on 12-well plates and incubated at 37° C. overnight. Lipopolysaccharide (LPS) was dissolved in phosphate buffered saline at a concentration of 2 μg/ml. Cells were treated with lipid nanoparticles containing LD-DEX prodrugs and 2 ng/ml of LPS for 4 hours. This LPS concentration was chosen due to its ability to increase IL1β expression approximately 1000 times as compared to untreated cells. At the end of the incubation period, culture medium was aspirated and cellular RNA was extracted using the Purelink RNA™ extraction kit according to manufacturer's protocol (Life Technologies™, Burlington, ON). The concentration of extracted RNA was determined using a Nanodrop Lite™ (Thermo Fisher™). 1 μg of RNA was converted to cDNA using the High Capacity cDNA Reverse Transcription kit (Life Technologies™, Burlington, ON). In order to validate the sample preparation, a no template control and a negative reverse transcriptase control were included. The cDNA was then quantified using comparative real-time qPCR where the Ct (threshold cycle) values are converted to relative quantity using the 2-ΔΔCT method. The primer-probe sets were designed to bind to cDNA of Interleukin-1β(IL1β). Hypoxanthine-guanine phosphoribosyltransferase (HPRT) was chosen as the endogenous normalizer gene, which is known to maintain consistent levels with varying treatments.
Background: Quantitative PCR measures a nucleic acid by following its amplification.

For data set [8], the system named is purified porcine esterase. Particulars: pig, 1 mg/mL LNP.
The subject of data set [9] is purified porcine esterase. The data set can be described thus: In vitro degradation of lipid-linked prodrugs in LNP, purified esterase in PBS. Particulars: for prodrug degradation over 24 h in purified esterase: LNP, 0, 2, 4 and 24 h; for release of active drug (UPLC chromatogram) in purified esterase: 24 h incubation.
Data set [10] can be described thus: In vitro dissociation of lipid-linked prodrugs from LNP in human plasma. The class given is in vitro ADME. The settings on record: human plasma over 24 h, 37° C., PC-Chol LNP or ionizable LNP. How it is done: LNP were incubated for 0, 3, 5 and 24 h at 37° C. in 400 μL of sterile human plasma (Cedarlane™, Burlington, Ontario) at a final lipid concentration of 1.2 mM. At the various time-points, samples were loaded onto a 1.5×27 cm Sepharose CL-4B column (Sigma-Aldrich™, St. Louis, Mo.). 30×2 mL fractions were collected. Three volumes of methanol/acetonitrile (1:1) were added to each fraction and analyzed by UHPLC to determine the residual LD-DEX/DTX as described above.

Consider `CCCCC/C=C\C/C=C\CCCCCCCCOC(=O)CCC(=O)OCC(=O)[C@@]1(O)[C@H](C)C[C@H]2[C@@H]3CCC4=CC(=O)C=C[C@]4(C)[C@@]3(F)[C@@H](O)C[C@@]21C` [LD03-DEX, linoleyl 2-((8S,9R,10S,11S,13S,14S,16R,17R)-9-fluoro-11,17-dihydroxy-10,13,16-trimethyl-3-oxo-6,7,8,9,10,11,12,13,14,15,16,17-dodecahydro-3H-cyclopenta[a]phenanthren-47-yl)-2-oxoethyl succinate], for which the “Particle size (PDI) PC-Chol LNP” value in data set [1] is 64 (0.06) nm. Moreover, in data set [1], the “Particle size (PDI) [ionizable LNP]” value was “[48 (0.04)] nm”. In addition, the “% Entrapment PC-Chol LNP” value in data set [2] is given as 94%. Further, the “% Entrapment [ionizable LNP]” value in [2] is “[100] %”. The “prodrug degradation over 24 h in mouse plasma” value in [3] is on record as “progressively degraded; also recorded: degraded at a faster rate than LD02-DEX”. Besides, the “prodrug cleavage in plasma” value in [3] (LNP, 1 or 4 h incubation in plasma) is recorded as “progressive prodrug cleavage”. Moreover, the “prodrug cleavage/degradation after 1 h in plasma” value in data set [3] (LNP) is “significant cleavage”. Further, in data set [3] (LNP), the “release of active drug (UPLC chromatogram) in mouse plasma” value is recorded as “a peak corresponding to active dexamethasone (DEX) appeared”. For the same molecule, the “plasma TNFα and KC/GRO levels versus control LNP-CpG” value in data set [4] is “marked reduction in cytokine levels”. For the same molecule, the “plasma cytokine levels versus control LNP-mRNA” value in [5] (3 mg/kg) is listed as “significantly reduced levels”; in data set [5] (listed as LD03, 3 mg/kg), “suppresses the immunostimulatory effects of LNP-mRNA”. The “plasma cytokine levels versus control LNP-pDNA” value in data set [6] (1 mg/kg) is “efficiently suppressed cytokine levels”; in [6] (listed as LD03, 1 mg/kg), “suppresses the immunostimulatory effects of LNP-pDNA”. Further, the “IL1β expression versus control LNP without prodrug” value in data set [7] is “able to reduce IL1β expression”. For the same molecule, the results for the “prodrug degradation over 24 h in purified esterase” value in data set [8] and in data set [9] were “degraded at a faster rate than LD02-DEX” and “progressively degraded”, respectively. Also, the “prodrug cleavage in PBS containing isolated esterases” value in data set [9] (LNP, 1 or 4 h incubation) is “progressive prodrug cleavage”. Also, the “release of active drug (UPLC chromatogram) in purified esterase” value in data set [9] (LNP) is “a peak corresponding to active dexamethasone (DEX) appeared”.

For the molecule `CCCCC/C=C\C/C=C\CCCCCCCC(=O)OC[C@H](COC(=O)CCC(=O)OCC(=O)[C@@]1(O)[C@H](C)C[C@H]2[C@@H]3CCC4=CC(=O)C=C[C@]4(C)[C@@]3(F)[C@@H](O)C[C@@]21C)OC(=O)CCCCCCC/C=C\C/C=C\CCCCC` [LD02-DEX, 2,3-dilinoleoyloxypropyl (2-((8S,9R,10S,11S,13S,14S,16R,17R)-9-fluoro-11,17-dihydroxy-10,13,16-trimethyl-3-oxo-6,7,8,9,10,11,12,13,14,15,16,17-dodecahydro-3H-cyclopenta[a]phenanthren-17-yl)-2-oxoethyl) succinate], in data set [1], the “Particle size (PDI) PC-Chol LNP” value is listed as 53 (0.05) nm and the “Particle size (PDI) [ionizable LNP]” value is “[49 (0.05)] nm”. Besides, in [2], the “% Entrapment PC-Chol LNP” value was determined as 100% and the “% Entrapment [ionizable LNP]” value is “[99] %”. The “prodrug degradation over 24 h in mouse plasma” value in data set [3] is listed as “progressively degraded”. In addition, in data set [3] (LNP), the “prodrug cleavage/degradation after 1 h in plasma” value was “virtually no degradation” and the “release of active drug (UPLC chromatogram) in mouse plasma” value is “a peak corresponding to active dexamethasone (DEX) appeared”. The “prodrug dissociation rate from LNP” value in data set [10] is given as “dissociated from lipid nanoparticles at a slower rate than LD03-DEX”. Also, the “prodrug dissociation rate from LNP” value in data set [10] (listed as LD02) is on record as “dissociates from LNP at a slower rate than that of LD03”. Also, in data set [4], the “plasma TNFα and KC/GRO levels versus control LNP-CpG” value is “marked reduction in cytokine levels”. In data set [9], the “prodrug degradation over 24 h in purified esterase” value is “progressively degraded”. For the same molecule, the “release of active drug (UPLC chromatogram) in purified esterase” value in data set [9] (LNP) was “a peak corresponding to active dexamethasone (DEX) appeared”.
